Results published in patent EP4491627A1, “SYNTHETIC CA[…] ON CHROMENO[…] AND USE THEREOF” (Consejo Superior De Investigaciones Científicas, priority 2023, dated 2025).

tested on: primary neuronal cultures; assay: cAMP assay in primary neuronal cultures; type: cell-based, Sprague Dawley rats; conditions: primary cultures of cortical neurons; Figure 5
Description: • Fig. 1. Graphics of the dose-response corresponding to the HTFR (Homogeneous Time Resolved Fluorescence) assays performed with chromenopyrimidines Example 1, Example 2 and Example 3. A) Competition assay snap-CB1; red ligand used at 100 nM; B) Competition assay snap-CB2; red ligand used at 20 nM. • Fig. 2. cAMP (Cyclic adenosine monophosphate) experiments performed with novel chromenopyrimidines (Example 1, Example 2 and Example 3). A) In HEK293 cells transfected with CB1; B) In HEK293 cells transfected with CB2. • Fig. 3. Graphics of the dose-response corresponding to the MAPK (mitogen-activated protein kinase) experiments performed with novel chromenopyrimidines (Example 1, Example 2 and Example 3). A) In HEK293 cells transfected with CB1; B) In HEK293 cells transfected with CB2. • Fig. 4. Graphics of the dose-response corresponding to the β-arrestin2 recruitment assays performed with Example 1, Example 2 and Example 3. A) In HEK293 cells transfected with CB1; B) In HEK293 cells transfected with CB2. • Fig. 5. Graphics of the dose-response corresponding to the cAMP assays performed with Example 1, Example 2 and Example 3 in neurons. • Fig. 6. Graphics of the dose-response of reference cannabinoids ACEA and anandamide in cAMP and MAPK assays in HEK293-CB1 cells. • Fig. 7. […]
In the present invention, cannabinoid affinity was evaluated using Homogeneous Time Resolved Fluorescence (HTFR) binding assays. Cannabinoid activity was assessed using an array of functional assays including cAMP, MAPK and barrestin2 recruitment in CB1 and CB2 transfected HEK293 cells. […]
Two hours before initiating the experiment, HEK-293T cells medium was replaced by serum-starved DMEM medium. […] Readings were performed after 60 min incubation at 25°. Homogeneous time-resolved fluorescence energy transfer (HTRF) measures were performed using the Lance Ultra cAMP kit (PerkinElmer, Waltham, MA, USA). Fluorescence at 665 nm was analysed on a PHERAstar Flagship microplate reader equipped with an HTRF optical module (BMG Lab technologies, Offenburg, Germany). […]

Structure (SMILES)	cannabinoid agonistic activity in primary neuronal cultures using cAMP assays
CCCCCCC(C)(C)c1cc(OC)c2c(c1)OC(C)(C)c1cncnc1-2 [Example 2, 8-(1,1-Dimethylheptyl)-10-methoxy-5,5-dimethylchromeno[4,3-d]pyrimidine]	cannabinoid agonistic activity
CCCCCCC(C)(C)c1cc(OCc2ccccc2)c2c(c1)OC(C)(C)c1cncnc1-2 [Example 3, 10-Benzyloxy-8-(1,1-dimethylheptyl)-5,5-dimethylchromeno[4,3-d]pyrimidine]	cannabinoid agonistic activity
CCCCCCC(C)(C)c1cc(O)c2c(c1)OC(C)(C)c1cncnc1-2 [Example 1, 8-(1,1-Dimethylheptyl)-5,5-dimethylchromeno[4,3-d]pyrimidin-10-ol]	cannabinoid agonistic activity
